From patent publication US20240109917A1 (ACTELION PHARMACEUTICALS LTD, priority 2020, published 2024)
Where two headings read alike, the source gives them in different places.

Experiments:
VEGFR2, unphosphorylated = VEGFR2, unphosphorylated (Homo sapiens (Human), UniProt P35968); assay: VEGFR ADP GLO Assay; type: biochemical
PDGFRβ = PDGFRβ (Rattus norvegicus (Rat), UniProt Q05030); assay: PDGFRβ Cellular Assay (PDGFRb P-Y751 HTRF in A10 cells stimulated with PDGF-BB); type: cell-based
Summary of the method: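 Rat A10 cells, plated overnight, were treated with compound for 3 hours, then stimulated with PDGF-BB (working stock 100 ng/mL in 10% FBS medium). After lysis, PDGFRβ P-Y751 was detected by HTRF.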

Chain of PDGFRβ (Q05030 32-1097): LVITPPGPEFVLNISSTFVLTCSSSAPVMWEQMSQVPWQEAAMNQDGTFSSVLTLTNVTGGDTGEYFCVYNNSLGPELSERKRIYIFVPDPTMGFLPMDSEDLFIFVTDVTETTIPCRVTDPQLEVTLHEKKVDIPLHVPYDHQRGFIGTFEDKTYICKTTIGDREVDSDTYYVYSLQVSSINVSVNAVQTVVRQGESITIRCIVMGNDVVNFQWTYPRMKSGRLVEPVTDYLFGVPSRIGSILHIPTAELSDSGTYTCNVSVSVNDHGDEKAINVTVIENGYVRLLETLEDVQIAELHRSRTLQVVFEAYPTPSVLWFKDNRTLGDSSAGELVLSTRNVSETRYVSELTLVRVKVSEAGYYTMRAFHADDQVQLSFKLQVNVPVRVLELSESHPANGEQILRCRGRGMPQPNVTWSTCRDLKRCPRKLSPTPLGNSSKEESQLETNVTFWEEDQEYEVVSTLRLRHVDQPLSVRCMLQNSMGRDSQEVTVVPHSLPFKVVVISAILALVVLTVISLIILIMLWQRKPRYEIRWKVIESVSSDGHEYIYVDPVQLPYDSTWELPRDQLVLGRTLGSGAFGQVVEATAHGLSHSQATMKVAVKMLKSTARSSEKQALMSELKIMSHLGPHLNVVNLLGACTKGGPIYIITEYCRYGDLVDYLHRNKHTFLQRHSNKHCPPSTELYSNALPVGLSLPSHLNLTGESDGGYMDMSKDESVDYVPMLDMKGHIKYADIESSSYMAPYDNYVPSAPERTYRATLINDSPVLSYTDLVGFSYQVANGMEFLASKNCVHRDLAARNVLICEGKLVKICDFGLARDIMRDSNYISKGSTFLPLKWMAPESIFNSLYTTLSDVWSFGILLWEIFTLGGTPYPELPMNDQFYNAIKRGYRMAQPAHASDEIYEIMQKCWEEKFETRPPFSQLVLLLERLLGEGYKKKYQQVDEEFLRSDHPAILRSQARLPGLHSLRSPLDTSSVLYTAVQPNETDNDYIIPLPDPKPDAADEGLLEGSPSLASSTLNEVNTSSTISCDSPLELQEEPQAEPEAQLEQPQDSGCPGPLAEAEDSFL
Chain of VEGFR2, unphosphorylated (P35968 20-1356): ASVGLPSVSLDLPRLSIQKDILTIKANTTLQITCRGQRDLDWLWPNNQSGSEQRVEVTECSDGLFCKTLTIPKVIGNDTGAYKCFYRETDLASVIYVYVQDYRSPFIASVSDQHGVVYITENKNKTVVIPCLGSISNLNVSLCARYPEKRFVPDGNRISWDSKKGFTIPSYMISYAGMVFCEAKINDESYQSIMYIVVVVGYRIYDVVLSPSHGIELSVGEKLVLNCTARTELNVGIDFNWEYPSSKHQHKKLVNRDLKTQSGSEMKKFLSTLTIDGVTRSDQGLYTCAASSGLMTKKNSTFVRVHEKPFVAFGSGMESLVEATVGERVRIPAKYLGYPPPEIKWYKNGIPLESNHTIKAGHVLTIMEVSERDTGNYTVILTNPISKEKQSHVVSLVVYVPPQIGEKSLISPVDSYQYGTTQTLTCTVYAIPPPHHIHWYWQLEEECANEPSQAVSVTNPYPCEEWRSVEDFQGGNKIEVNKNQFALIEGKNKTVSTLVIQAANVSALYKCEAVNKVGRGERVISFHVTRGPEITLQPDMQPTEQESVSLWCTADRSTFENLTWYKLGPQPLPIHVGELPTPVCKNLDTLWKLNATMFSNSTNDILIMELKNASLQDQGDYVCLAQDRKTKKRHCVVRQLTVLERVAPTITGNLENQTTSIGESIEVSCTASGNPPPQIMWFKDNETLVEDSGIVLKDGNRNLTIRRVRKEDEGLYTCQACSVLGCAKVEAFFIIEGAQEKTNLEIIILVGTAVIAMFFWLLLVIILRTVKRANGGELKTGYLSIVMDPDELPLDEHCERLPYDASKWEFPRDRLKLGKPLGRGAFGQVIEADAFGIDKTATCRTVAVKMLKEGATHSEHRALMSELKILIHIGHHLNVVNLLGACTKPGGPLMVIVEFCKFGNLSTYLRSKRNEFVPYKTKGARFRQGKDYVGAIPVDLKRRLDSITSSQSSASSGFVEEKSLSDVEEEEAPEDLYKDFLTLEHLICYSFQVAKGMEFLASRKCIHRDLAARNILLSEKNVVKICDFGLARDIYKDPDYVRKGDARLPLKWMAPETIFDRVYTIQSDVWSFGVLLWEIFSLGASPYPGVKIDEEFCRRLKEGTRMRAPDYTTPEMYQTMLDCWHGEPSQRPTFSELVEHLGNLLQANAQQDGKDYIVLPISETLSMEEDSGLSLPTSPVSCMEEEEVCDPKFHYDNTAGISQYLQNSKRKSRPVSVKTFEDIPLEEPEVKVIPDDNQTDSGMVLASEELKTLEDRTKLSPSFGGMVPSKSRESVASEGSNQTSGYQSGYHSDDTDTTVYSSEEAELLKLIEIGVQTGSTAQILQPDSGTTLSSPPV

Compound	IC50 (VEGFR2, unphosphorylated) [nM]	IC50 (PDGFRβ; read-out: PDGFR Cellular IC50) [nM]	IC50 (PDGFRβ; PDGFR Cellular IC50) [nM]
COCCn1cc(-c2cn3ncc(C(=O)Nc4cc(NC(=O)CN5CCC5C(C)C)cnc4C)c3s2)cn1 (stereo not drawn) [Example 467, N-(5-(2-(2-isopropylazetidin-1-yl)acetamido)-2-methylpyridin-3-yl)-2-(1-(2-methoxyethyl)-1H-pyrazol-4-yl)pyrazolo[5,1-b]thiazole-7-carboxamide]	> 7500	4.4	
CCCNCC(=O)Nc1cnc(C)c(NC(=O)c2cnn3cc(-c4cnn5c4CCC5)sc23)c1 [Example 456, 2-(5,6-dihydro-4H-pyrrolo[1,2-b]pyrazol-3-yl)-N-(2-methyl-5-(2-(propylamino)acetamido)pyridin-3-yl)pyrazolo[5,1-b]thiazole-7-carboxamide]	> 7500	11	
Cc1ncc(C(=O)NCCN2CC(C)(C)C2)cc1NC(=O)c1cnn2cc(-c3cnn4c3OCCC4)sc12 [Example 479, 2-(6,7-dihydro-5H-pyrazolo[5,1-b][1,3]oxazin-3-yl)-N-(5-((2-(3,3-dimethylazetidin-1-yl)ethyl)carbamoyl)-2-methylpyridin-3-yl)pyrazolo[5,1-b]thiazole-7-carboxamide]	> 7500	97.1	
Cc1ncc(C(=O)NCCN2CCCC2(C)C)cc1NC(=O)c1cnn2cc(-c3cnn4c3OCCC4)sc12 [Example 460, 2-(6,7-dihydro-5H-pyrazolo[5,1-b][1,3]oxazin-3-yl)-N-(5-((2-(2,2-dimethylpyrrolidin-1-yl)ethyl)carbamoyl)-2-methylpyridin-3-yl)pyrazolo[5,1-b]thiazole-7-carboxamide]	> 7500	13.4	
Cc1ncc(NC(=O)CN2CC(C)(C)C2)cc1NC(=O)c1cnn2cc(-c3nn(C)nc3C)sc12 [Example 445, 2-(2,5-Dimethyl-2H-1,2,3-triazol-4-yl)-N-(5-(2-(3,3-dimethylazetidin-1-yl)acetamido)-2-methylpyridin-3-yl)pyrazolo[5,1-b]thiazole-7-carboxamide]	> 7500	2.2	
Cc1ncc(NC(=O)CN2CCCC23CCC3)cc1NC(=O)c1cnn2cc(-c3cnc4n3CCOC4)sc12 [Example 418, N-(5-(2-(5-azaspiro[3.4]octan-5-yl)acetamido)-2-methylpyridin-3-yl)-2-(5,6-dihydro-8H-imidazo[2,1-c][1,4]oxazin-3-yl)pyrazolo[5,1-b]thiazole-7-carboxamide]	> 7500	6.5	
Cc1cc(C(=O)NCCN2CCCC23CCC3)sc1NC(=O)c1cnn2cc(-c3cnn(C)c3)sc12 [Example 35, N-(5-((2-(5-azaspiro[3.4]octan-5-yl)ethyl)carbamoyl)-3-methylthiophen-2-yl)-2-(1-methyl-1H-pyrazol-4-yl)pyrazolo[5,1-b]thiazole-7-carboxamide]	> 7500	33.6	
Cc1ncc(NC(=O)CC2CNC2)cc1NC(=O)c1cnn2cc(-c3cnn4c3CCC4)sc12 [Example 426, N-(5-(2-(azetidin-3-yl)acetamido)-2-methylpyridin-3-yl)-2-(5,6-dihydro-4H-pyrrolo[1,2-b]pyrazol-3-yl)pyrazolo[5,1-b]thiazole-7-carboxamide]	> 7500	> 2000	
Cc1ncc(NC(=O)CN2CCC23CCC3)cc1NC(=O)c1cnn2cc(-c3cnn4c3COCC4)sc12 [Example 475, N-(5-(2-(1-azaspiro[3.3]heptan-1-yl)acetamido)-2-methylpyridin-3-yl)-2-(6,7-dihydro-4H-pyrazolo[5,1-c][1,4]oxazin-3-yl)pyrazolo[5,1-b]thiazole-7-carboxamide]	> 7500	2.3	
Cc1ncc(C(=O)NCC2CCCN2C)cc1NC(=O)c1cnn2cc(-c3cnn4c3CCC4)sc12 (stereo not drawn) [Example 469, 2-(5,6-dihydro-4H-pyrrolo[1,2-b]pyrazol-3-yl)-N-(2-methyl-5-(((1-methylpyrrolidin-2-yl)methyl)carbamoyl)pyridin-3-yl)pyrazolo[5,1-b]thiazole-7-carboxamide]	> 7500	40.5	
Cc1ncc(C(=O)NCCN2CCCC2(C)C)cc1NC(=O)c1cnn2cc(-c3cnn4c3COCC4)sc12 [Example 450, 2-(6,7-dihydro-4H-pyrazolo[5,1-c][1,4]oxazin-3-yl)-N-(5-((2-(2,2-dimethylpyrrolidin-1-yl)ethyl)carbamoyl)-2-methylpyridin-3-yl)pyrazolo[5,1-b]thiazole-7-carboxamide]	> 7500	21.6	
Cc1ncc(NC(=O)CN2CCCC2(C)C)cc1NC(=O)c1cnn2cc(-c3cnn(C(C)(C)CO)c3)sc12 [Example 457, N-(5-(2-(2,2-dimethylpyrrolidin-1-yl)acetamido)-2-methylpyridin-3-yl)-2-(1-(1-hydroxy-2-methylpropan-2-yl)-1H-pyrazol-4-yl)pyrazolo[5,1-b]thiazole-7-carboxamide]	> 7500	4	
Cc1ncc(C(=O)NCCN2CC3CCC2CC3)cc1NC(=O)c1cnn2cc(-c3cnn4c3COCC4)sc12 [Example 459, N-(5-((2-(2-azabicyclo[2.2.2]octan-2-yl)ethyl)carbamoyl)-2-methylpyridin-3-yl)-2-(6,7-dihydro-4H-pyrazolo[5,1-c][1,4]oxazin-3-yl)pyrazolo[5,1-b]thiazole-7-carboxamide]	> 7500	33.7	
Cc1ncc(NC(=O)CN2C[C@@H](C)O[C@H](C)C2)cc1NC(=O)c1cnn2cc(-c3cnn(CCS(C)(=O)=O)c3)sc12 (relative stereo) [Example 432, N-(5-(2-(trans-2,6-dimethylmorpholino)acetamido)-2-methylpyridin-3-yl)-2-(1-(2-(methylsulfonyl)ethyl)-1H-pyrazol-4-yl)pyrazolo[5,1-b]thiazole-7-carboxamide]	> 2500		420
Cc1ncc(NC(=O)CN2CCC3(CC3)C2)cc1NC(=O)c1cnn2cc(-c3cnn4c3COCC4)sc12 [Example 474, N-(5-(2-(5-azaspiro[2.4]heptan-5-yl)acetamido)-2-methylpyridin-3-yl)-2-(6,7-dihydro-4H-pyrazolo[5,1-c][1,4]oxazin-3-yl)pyrazolo[5,1-b]thiazole-7-carboxamide]	> 7500	3.9	
Cc1ncc(NC(=O)CN2CC(C)(C)C2)cc1NC(=O)c1cnn2cc(-c3cncnc3)sc12 [Example 429, N-(5-(2-(3,3-dimethylazetidin-1-yl)acetamido)-2-methylpyridin-3-yl)-2-(pyrimidin-5-yl)pyrazolo[5,1-b]thiazole-7-carboxamide]	> 7500	30.9	
Cc1ncc(NC(=O)CN2CC3(COC3)C2)cc1NC(=O)c1cnn2cc(-c3cnn4c3OCCC4)sc12 [Example 411, N-(5-(2-(2-oxa-6-azaspiro[3.3]heptan-6-yl)acetamido)-2-methylpyridin-3-yl)-2-(6,7-dihydro-5H-pyrazolo[5,1-b][1,3]oxazin-3-yl)pyrazolo[5,1-b]thiazole-7-carboxamide]	> 7500	114	
Cc1ncc(C(=O)NCCN2CC3CCC2CC3)cc1NC(=O)c1cnn2cc(-c3cnn4c3CCC4)sc12 [Example 480, N-(5-((2-(2-azabicyclo[2.2.2]octan-2-yl)ethyl)carbamoyl)-2-methylpyridin-3-yl)-2-(5,6-dihydro-4H-pyrrolo[1,2-b]pyrazol-3-yl)pyrazolo[5,1-b]thiazole-7-carboxamide]	> 7500	19.5	
